# Results reported in patent US20240024500A1, “ELECTROSTATIC NANOPARTICLES AND USE THEREOF” (Westfaelische Wilhelms-Universitaet Muenster, priority 2020, published 2024).
# Read-outs that look alike come from different tables or passages of the source.
# Columns and labels:
# [1] = biological target: EGFR (epidermal growth factor receptor) on cells (UniProt P00533); assay: cell-based or functional assay
# [2] = system: HBL-1 DLBCL-cells; assay: NSG-HBL1 xenograft model; settings: after treatment start
# [3] = Cell-free vesicle formation, light/fluorescence microscopy; assay type: physicochemical; settings: charged vs uncharged cargo, modified vs unmodified antibody
# Method: Based upon these measurements, we hypothesized that the antibody-protamine/free SMCC-protamine/siRNA complexes form outside cells and independently of a cellular context. […]
# We further analysed the properties of the different conjugation products according to their capacity to form vesicular-structures without cells when these conjugation products were incubated with Alexa488-control-siRNA (FIG. 40 G-L) as well as with EGFR-positive A459 cells (FIG. 40 M-R). When cetuximab was conjugated with SMCC-protamine at ratios of 1:1 up to 1:10, no efficient cell-free vesicle formation could be observed (FIG. 40 G-I), while at the ratio 1:32, the vesicle formation was very abundant FIG. 40 J) and decreased at ratios 1:50 and 1:100 (FIG. 40 K-L). The internalisation capacity of these complexes was highest upon conjugation 1:32 (FIG. 40 P), decrease upon conjugation 1:10 (FIG. 40 O). […] This hinted at an optimal complex formation of cetuximab with SMCC-protamine of 1:32, since this lead to the most efficient conjugation, vesicle formation without cells and internalisation into cells.
# To further elucidate the function of SMCC-protamine coupled to the antibody and as free molecule within the complex, we titrated the amount of SMCC-protamine added to the antibody-protamine-conjugates that were depleted from free SMCC-protamine by HPLC. […] We added different amounts of free SMCC-protamine and protamine alone to anti-EGFR-mAB-P (FIG. 41).
# [4] = system: HBL-1 cells; assay: Colony formation assay, HBL-1, ibrutinib-Cy3.5 cargo; assay type: cell-based
# Method: Next, we planned functional assays for identifying the effectivity of the antibody-inhibitor-complexes. DLBCL tumor cells were seeded in methylcellulose to form anchorage-free colony growth as a substitute marker for tumorigenicity. Assays were treated with combinations of antibody-inhibitor complexes and compared with appropriate control groups.
# This colony-assay is used for quantification of anchorage-independent clonal cell growth and is a standard in vitro surrogate for tumorigenicity in vivo.
Alexa488-siRNA shuttled into RD cells (FACS) [1],internalisation of Alexa488-siRNA into RD cells (FACS) [1],nanoparticle formation with antibody carriers ([3]; listed as uncharged ibrutinib),Compound,day by which all / the last mice had to be sacrificed [2],nanoparticle formation with antibody carriers [3],colony formation of HBL-1 cells ([4]; listed as unconjugated rituximab),colony formation of HBL-1 cells ([4]; listed as unmodified rituximab (αCD20-mAB)),colony formation of HBL-1 cells [4]
> 90 % of cells,< 90 % of cells,,"cetuximab-SMCC-protamine conjugate (anti-EGFR-mAB-protamine, used with free SMCC-protamine) (antibody)",,,,,
,,,rituximab: anti-CD20 antibody,≤ 16 days,not seen,only a mild effect,not,
,,not,"C=CC(=O)N1CCC[C@@H](n2nc(-c3ccc(Oc4ccccc4)cc3)c3c(N)ncnc32)C1 [ibrutinib, 1-[(3R)-3-[4-amino-3-(4-phenoxyphenyl)pyrazolo[3,4-d]pyrimidin-1-yl]piperidin-1-yl]prop-2-en-1-one]",20 days,not seen,,,much lesser degree
